According to US20050009094A1 (priority 2001, published 2005):

What was measured:
PrP^Sc exposed neurons = details: cited from earlier work
14-3-3 gene expression = assay: Expression of 14-3-3 gene in G. cydonium after exposition to PCB118 (Northern and Western Blotting); assay type: in vivo, Geodia cydonium; details: 2 μg PCB 118/g wet weight, incubation 0.5 to 6 days
From the text: The analyses were accomplished by means of Northern Blotting [14-3-3 probe] (A) or Western Blotting [14-3-3 antibody] (B).
The employed method was PCR cloning.
The detection of expression of the 14-3-3 proteins on the protein level is accomplished by using antibodies. To this aim, one can either employ commercial antibodies (e.g. from the Calbiochem/Oncogene company) or antibodies raised against the recombinant invertebrate-14-3-3 protein from Geodia cydonium. […] The signals can again be quantified by using the chemiluminescence method. The tissue extracts can e.g. be prepared by homogenisation in a phosphate buffer containing 1 mM of EDTA and 1 mM of phenylmethylsulfonyl fluoride.
The 14-3-3-cDNA from the sea sponge Geodia cydonium was used as a gene probe for the detection of expression of the 14-3-3 proteins on the mRNA-level and the respective antibodies were used for determining the amount of protein. In the accomplished keeping experiments, PCB 118 was used as the model PCB.
1 ml of PCB118 (0.1 mg/ml in corn oil) were injected in 40 g sponge tissue. The samples were incubated in sea water for up to 6 days in 20 l aquariums at 17° C. with continuous aeration; the water was exchanged one time at day 2. Aliquot portions of the tissue (each about 200 mg) were withdrawn at the time zero or after an incubation period of 0.5; 1; 3; 5 and 6 days. […]

Row | SMILES | effect counteracting the neurotoxic peptide PrP106-126 (PrP^Sc exposed neurons) | effect on PrP^Sc exposed neurons (PrP^Sc exposed neurons) | extent of apoptosis caused by PrP106-126 (PrP^Sc exposed neurons) | expression of the 14-3-3 gene (mRNA and protein) (14-3-3 gene expression)
1 | CCOC(=O)Nc1ccc(NCc2ccc(F)cc2)nc1N [Flupirtin] | cytoprotective effect | protective effect | reduces | 
2 | CC12CC3CC(C)(C1)CC(N)(C3)C2 [Memantin] |  | protective effect |  | 
3 | Clc1ccc(-c2cc(Cl)c(Cl)cc2Cl)cc1Cl [PCB118] |  |  |  | very high values
